Measurements from patent publication US8703963B2, “Derivative N-thiolated 2-oxazolidinone antibiotics” (University of South Florida, priority 2005, dated 2014).
Marks after values point to notes of the source that are not given here.

What was measured:
[1] = system: 10 strains of MRSA (652-659, 919-920); test: Kirby-Bauer zones of inhibition, 10 strains of MRSA; conditions: for MRSA (inhibition), median diameter of zone of inhibition: median of 10 strains of MRSA (652-659, 919-920), c = partial inhibition within this diameter
[2] = system: S. aureus 849 (ATCC 25923); test: Kirby-Bauer agar disk diffusion; conditions: for S. aureus (Inhibition), median zone of inhibition: S. Aureaus strain 849, c = partial inhibition within this diameter; for zone of growth inhibition, average diameter: S. aureus 849 (ATCC 25923), 20 μg on 6 mm disk, 24 h at 37° C., triplicate
[3] = system: B. coagulans; test: Kirby-Bauer agar disk diffusion; type: cell-based; conditions: 20 μg on 6 mm disk, 24 h at 37° C., triplicate
[4] = system: MRSA USF920 (ATCC 33591); test: Kirby-Bauer agar disk diffusion; conditions: 20 μg on 6 mm disk, 24 h at 37° C., triplicate
[5] = system: B. subtilus; test: Kirby-Bauer agar disk diffusion; type: cell-based; conditions: 20 μg on 6 mm disk, 24 h at 37° C., triplicate
[6] = system: MRSA USF654; test: Kirby-Bauer agar disk diffusion; conditions: 20 μg on 6 mm disk, 24 h at 37° C., triplicate
[7] = system: MRSA USF655; test: Kirby-Bauer agar disk diffusion; conditions: 20 μg on 6 mm disk, 24 h at 37° C., triplicate
[8] = system: MRSA USF656; test: Kirby-Bauer agar disk diffusion; conditions: 20 μg on 6 mm disk, 24 h at 37° C., triplicate
[9] = system: MRSA USF657; test: Kirby-Bauer agar disk diffusion; conditions: 20 μg on 6 mm disk, 24 h at 37° C., triplicate
[10] = system: B. thurigensis; test: Kirby-Bauer agar disk diffusion; type: cell-based; conditions: 20 μg on 6 mm disk, 24 h at 37° C., triplicate
[11] = system: Bacillus anthracis (Sterne strain); type: cell-based; conditions: B. anthracis (Sterne strain); 20 μg on 6 mm disk; 24 h at 37° C.; triplicate
[12] = system: S. aureus; test: Broth MIC; type: cell-based, Staphylococcus aureus
[13] = system: MRSA USF658; test: Kirby-Bauer agar disk diffusion; conditions: 20 μg on 6 mm disk, 24 h at 37° C., triplicate
[14] = system: B. globigii; test: Kirby-Bauer agar disk diffusion; type: cell-based; conditions: 20 μg on 6 mm disk, 24 h at 37° C., triplicate
[15] = system: MRSA USF659; test: Kirby-Bauer agar disk diffusion; conditions: 20 μg on 6 mm disk, 24 h at 37° C., triplicate
[16] = system: MRSA USF919 (ATCC 43300); test: Kirby-Bauer agar disk diffusion; conditions: 20 μg on 6 mm disk, 24 h at 37° C., triplicate
[17] = system: MRSA; test: Broth MIC; type: cell-based, Staphylococcus aureus
[18] = system: B. cereus; test: Kirby-Bauer agar disk diffusion; type: cell-based; conditions: 20 μg on 6 mm disk, 24 h at 37° C., triplicate
[19] = system: MRSA USF653; test: Kirby-Bauer agar disk diffusion; conditions: 20 μg on 6 mm disk, 24 h at 37° C., triplicate
[20] = system: MRSA USF652; test: Kirby-Bauer agar disk diffusion; conditions: 20 μg on 6 mm disk, 24 h at 37° C., triplicate
[21] = system: B. megaterium; test: Kirby-Bauer agar disk diffusion; type: cell-based; conditions: 20 μg on 6 mm disk, 24 h at 37° C., triplicate

| Compound | MRSA (inhibition), median diameter of zone of inhibition [1] | S. aureus (Inhibition), median zone of inhibition [2] | zone of growth inhibition, average diameter [3] [mm] | zone of growth inhibition, average diameter [4] [mm] | zone of growth inhibition, average diameter [5] [mm] | zone of growth inhibition, average diameter [6] [mm] | zone of growth inhibition, average diameter [7] [mm] | zone of growth inhibition, average diameter [8] [mm] | zone of growth inhibition, average diameter [9] [mm] | zone of growth inhibition, average diameter [10] [mm] | zone of growth inhibition, average diameter [11] [mm] | zone of growth inhibition, average diameter [2] [mm] | zone of growth inhibition, average diameter [13] [mm] | zone of growth inhibition, average diameter [14] [mm] | zone of growth inhibition, average diameter [15] [mm] | zone of growth inhibition, average diameter [16] [mm] | zone of growth inhibition, average diameter [18] [mm] | zone of growth inhibition, average diameter [19] [mm] | zone of growth inhibition, average diameter [20] [mm] | zone of growth inhibition, average diameter [21] [mm] | also measured |
| --- | --- | --- | --- | --- | --- | --- | --- | --- | --- | --- | --- | --- | --- | --- | --- | --- | --- | --- | --- | --- | --- |
| CSN1C(=O)OC[C@H]1c1ccccc1 [oxazolidinone 7, 4R-(−)-N-methylthio-4-phenyl-2-oxazolidinone] | 28 mm | 29 mm | – | – | – | – | – | – | – | – | – | – | – | – | – | – | – | – | – | – | – |
| CSN1C(=O)OC[C@@H]1C(C)C [compound 8] | – | – | 17 | 18 | 17 | 23 | 22 | 22 | 22 | 16 | 23 | 20 | 16 | 15 | 22 | 21 | 22 | 27 | 19 | 18 | broth MIC value [12]: 16 µg/mL; broth MIC value [17]: 16 µg/mL |
| CSN1C(=O)OC[C@@H]1C(C)C [oxazolidinone 8] | 16^c mm | 20^c mm | – | – | – | – | – | – | – | – | – | – | – | – | – | – | – | – | – | – | – |
| CSN1C(=O)OC[C@H]1c1ccccc1 [compound 7] | – | – | 17 | 28 | 19 | 26 | 28 | 28 | 27 | 15 | 23 | 29 | 27 | 17 | 26 | 28 | 23 | 30 | 30 | 20 | broth MIC value [12]: 8 µg/mL; broth MIC value [17]: 8 µg/mL |
| CSN1C(=O)OC[C@@H]1c1ccccc1 [compound 6] | – | – | 17 | 28 | 19 | 29 | 29 | 31 | 29 | 17 | 23 | 30 | 29 | 15 | 26 | 30 | 24 | 31 | 30 | 18 | – |
| CSN1C(=O)OC[C@H]1C(C)C [oxazolidinone 9, 4R-(+)-N-methylthio-4-isopropyl-2-oxazolidinone] | 19^c mm | 21^c mm | – | – | – | – | – | – | – | – | – | – | – | – | – | – | – | – | – | – | – |
| CC1(C)S[C@@H]2[C@H](NC(=O)Cc3ccccc3)C(=O)N2[C@H]1C(=O)O [Pen G, penicillin G, reference compound] | – | – | – | – | – | 10 | 14 | 12 | 12 | – | – | 33 | 19 | – | 16 | – | – | 15 | 8 | – | – |
| COC1C(=O)N(SC)C1c1ccccc1 (racemic) [Lac, reference compound] | – | – | – | – | – | 26 | 25 | 28 | 27 | – | – | 25 | 26 | – | 24 | – | – | 30 | 30 | – | – |
| CSN1C(=O)OC[C@H]1C(C)C [compound 9] | – | – | 0 | 15 | 19 | 20 | 18 | 20 | 19 | 0 | 15 | 21 | 19 | 17 | 22 | 13 | 15 | 25 | 12 | 10 | clarity of growth inhibition zones ([1]; Kirby-Bauer, anti-MRSA, compared with S-stereoisomer 8): incomplete growth inhibition |
| CCC(C)SN1CC(CCl)OC1=O (stereo not drawn) [compound 5] | – | – | – | 19 | – | 22 | 22 | 20 | 22 | – | – | 19 | 21 | – | 20 | 19 | – | 20 | 19 | – | – |
| CSN1C(=O)OC[C@@H]1c1ccccc1 [oxazolidinone 6, 4S-(+)-N-methylthio-4-phenyl-2-oxazolidinone] | 29 mm | 30 mm | – | – | – | – | – | – | – | – | – | – | – | – | – | – | – | – | – | – | – |
